Measured values taken from paper PMC10805311, “Pseudomonas aeruginosa two-component system CprRS regulates HigBA expression and bacterial cytotoxicity in response to LL-37 stress” (PLOS Pathogens, 2024).

Columns and labels:
[1] = test system: RAW264.7 macrophages (TNF-α, IL-1β, IL-8, IL-12); assay: Pro-inflammatory cytokine levels in infected macrophages; format: cell-based; conditions: 18s RNA normalizer
Description: (§1) Overnight bacterial cultures were subcultured in fresh LB medium to OD600 0.8 and the cells were collected by using Trizol. The cDNA was synthesized by using PrimeScript RT reagent Kit. 2 × SYBR qPCR Master Mix was used to perform qPCR assays. The reaction step was 2 × SYBR qPCR Master Mix (Without ROX) 10 μL, upstream Primer (10 μM) 0.4 μL, downstream Primer (10 μM) 0.4 μL, template cDNA 1 μg and ddH2O up to 20 μL. The qPCR procedure was set as: stage 1 (95°C 30 s, repeat once), stage 2 (95°C 10 s, 60°C 30 s, repeat for 40 times) and stage 3 (95°C 15 s, 60°C 1 min, 95°C 15 s, repeat 1 time). The oprL gene was used as a normalizer. The same method was used for mammalian cells, and 18 sRNA served as a normalizer.

[2] = test system: exsA and effectors exoS, exoT, and exoU; assay: Expression of T3SS genes exsA, exoS, exoT, exoU; format: cell-based, P. aeruginosa; conditions: combined mutations of CprRS components and higB gene
Description: as §1

[3] = target: full-length CprS (CprSFL); assay: Microscale thermophoresis (MST), full-length CprS; format: binding, P. aeruginosa; conditions: 100 nM His-tag labelled CprSFL, 16 doubling dilutions from 500 μM peptide, PBST buffer, 25°C 30 min, Monolith NT.115, repeated three times, read-out: Kd (CprSFL + LL-37)
Description: (§2) The E. coli BL21 (DE3) strains harboring pET22b-cprS and pET22b-cprR were cultured at 37°C in LB medium and suppled with 0.4 mM IPTG as the OD600 reached to 0.8. The cultures were incubated at 16°C for an additional 14 h and the cells were collected and resuspended in buffer A (20 mM tris-HCl (pH 8.0), 150 mM NaCl). The cells were lysed by ultrasound and centrifuged at 15, 000 rpm for 20 min at 4°C. Then the supernatant was applied to Ni-agarose resins and eluted with buffer containing 300 mM imidazole. As for full-length CprS, the supernatant needed to be extracted by 2% ELUGENT Detergent and flow 0.02% DDM for elution. The target proteins were further purified via AKTA purifier using buffer A and concentrated to 12 mg/mL.
(§3) The 100 nM CprS with His-tag was labeled with Monolith His-Tag Labelling Kit RED-tris-NTA 2nd Generation Kit and the cationic peptides used in this work were diluted with PBST buffer gradient from 0.5 mM [34]. The proteins and cationic peptide dilutions were mixed and incubated at 25°C for 30 min and detected on a Monolith NT.115 instrument. The data were analyzed by NanoTemper Analysis 1.2.20 software.

[4] = test system: higB; assay: qPCR, higB mRNA; format: cell-based, P. aeruginosa
Description: as §1

[5] = test system: P. aeruginosa ΔcprS; assay: Label-free quantitative proteomics of ΔcprS before and after LL-37; format: cell-based; conditions: PscE, PscH, PscJ, ExoT, PcrV, PcrH, PhzA2, PhzB2, PhzF1, FilF, PigA, HsbA; before vs after LL-37
Description: Protein was collected, reduced, and alkylated from WT, ΔcprS, ΔcprR, ΔcprSΔhigB, and ΔcprSΔhigB strains as reported. The total purified peptides were solubilized in 20 μL of 0.1% formic acid (FA, v/v) and the concentration was measured according to BCA assay.
About 2 μg samples were analyzed by orbitrap Fusion Lumos MS coupled online to an EASY-nLC 1200 system with a data-independent acquisition mode (DIA). The mobile phase used for the liquid chromatography consisted of buffer A (0.1% FA) and buffer B (80% acetonitrile, 0.1% FA). The peptides were separated using a 160-min nonlinear gradient consisting of 4–35% buffer B for 85 min, 35–100% buffer B for 60 min and 100% buffer B for 15 min at a flow rate of 300 nL min^−1. The acquired DIA data were analyzed by DIA-NN software against the protein database of P. aeruginosa PA14. Data processing was conducted using the software Perseus. Student’s t-test was used to assess the significance of differential expression of proteins (DEPs) between two groups. Proteins that have significance level of P < 0.05 and fold change >1.5 or <–1.5 were considered as DEPs.

[6] = test system: cprS; assay: qRT-PCR, cprS transcription; format: cell-based, P. aeruginosa; conditions: oprL as normalizer
Description: as §1

[7] = test system: cprR; assay: qRT-PCR, cprR transcription; format: cell-based, P. aeruginosa; conditions: oprL as normalizer
Description: as §1

[8] = test system: arnBCADTEF operon; assay: Expression of arnBCADTEF operon; format: cell-based, P. aeruginosa
Description: as §1

[9] = test system: virulence sensor kinase CovS; conditions: group A streptococcus; cited from earlier work
Text: (§4) In the field of microbiology and immunology, the interaction between host antimicrobial peptides and pathogenic bacteria has been a subject of extensive research. The success of bacterial infections depends on a delicate balance of signals exchanged between microbes and hosts. Cationic antimicrobial peptides, including defensins such as α-defensins, β-defensins, and cathelicidin LL-37, are crucial components of innate host defense against bacterial infections. Numerous studies have shown that LL-37 acts as a shield between the host and the external environment, preventing bact ...

[10] = test system: CarSR system; conditions: Vibrio cholerae; cited from earlier work
Text: as §4

[11] = target: CprS sensor domain (CprSSD, residues 28–163); assay: Microscale thermophoresis (MST), CprS sensor domain; format: binding, P. aeruginosa; conditions: 100 nM His-tag labelled CprSSD (residues 28–163), 16 doubling dilutions from 500 μM peptide, PBST buffer, 25°C 30 min, Monolith NT.115, repeated three times, read-out: Kd (CprSSD + LL-37)
Description: as §2, §3

[12] = test system: higA; assay: Expression of higA; format: cell-based, P. aeruginosa; conditions: WT and ΔcprR or ΔcprS mutants
Description: as §1

[13] = test system: Raw264.7 macrophages; assay: LDH release cytotoxicity assay of infected macrophages; format: cell-based; conditions: MOI of 10, LL-37-treated WT P. aeruginosa
Description: The Raw264.7 cells were infected with suspended bacteria at a multiplicity of infection (MOI) of 10 in antibiotic-free DMEM medium. Following incubation, the supernatant was collected and the presence of LDH was measured using the LDH cytotoxicity assay kit. The baseline level of LDH release (0% LDH release) was determined using DMEM medium. Cells treated with LDH release agent C0017-1 were used as a positive control for total release (100% LDH release). The percentage of cytotoxicity was calculated according to the instructions provided by the manufacturer.

[14] = test system: higB promoter; assay: β-Galactosidase reporter, higB promoter in P. aeruginosa; format: cell-based
[15] = test system: pscDEFG operon; assay: Expression of pscDEFG operon; format: cell-based, P. aeruginosa
Description: as §1

[16] = test system: CprRS as well as ParRS system; conditions: cited from earlier work
Text: Pseudomonas aeruginosa is a notorious opportunistic pathogen known for its ability to evade host immune defenses, particularly in resisting antimicrobial peptides (AMPs). […] One notable feature is the abundance and diversity of two-component systems (TCS) in P. aeruginosa, which play a crucial role in regulating its response to host and environmental stimuli, including ...

LL-37
effect of LL-37 pretreatment on inhibition of pro-inflammatory cytokines ([1]; macrophages infected with WT strain pretreated with LL-37): enhanced the ability of the WT strain to effectively inhibit the activation of pro-inflammatory cytokines
effect of LL-37 pretreatment on inhibition of pro-inflammatory cytokines ([1]; macrophages infected with ΔcprS and ΔcprR strains): largely absent
upregulation of T3SS in response to LL-37 stimulation [2]: greatly attenuated
Kd [3]: 1.41 µM
increase in higB mRNA levels upon LL-37 treatment ([4]; WT strain): 8.79 fold
increase in higB mRNA levels upon LL-37 treatment ([4]; ΔcprR mutant): 2.12 fold
increase in higB mRNA levels upon LL-37 treatment ([4]; ΔcprS mutant): 2.74 fold
expression of virulence proteins in ΔcprS upon stimulation with LL-37 [5]: significant decrease in the expression of several proteins directly involved in virulence processes
increase in cprS transcription compared to control without LL-37 [6]: 2.5 fold
increase in cprR transcription compared to control without LL-37 [7]: 2.2 fold
expression of arnBCADTEF operon under LL-37 ([8]; WT strain): markedly induced
expression of arnBCADTEF operon under LL-37 ([8]; ΔcprR and ΔcprS mutants): this induction was not observed
activation of CovS [9]: activated by LL-37
sensing by CarSR [10]: sense human enteric α-defensin 5 and LL-37 to promote bacterial pathogenicity
Kd [11]: 5.34 µM
effect of LL-37 stimulation on expression of higA [12]: limited effects on the expression of higA
cytotoxicity of LL-37-treated WT strains compared to untreated group [13]: increased cytotoxicity
induction of higB promoter by LL-37 ([14]; WT): significant positive induction activity on higB promoter
induction of higB promoter by LL-37 ([14]; ΔcprR and ΔcprS mutants): markedly reduced
expression of pscDEFG operon under LL-37 ([15]; WT strain): notably induced
expression of pscDEFG operon under LL-37 ([15]; mutants): no such induction was observed

dynorphin
stimulation of CprRS as well as ParRS by dynorphin [16]: increased virulence factor production and adaptive resistance
